Results from US9868724B2, “Compounds” (GLAXOSMITHKLINE INTELLECTUAL PROPERTY DEVELOPMENT LIMITED, priority 2014, dated 2018).

How the values were obtained:
[1] = biological target: T1, RORγ ligand binding domain (RORγ-LBD) (Homo sapiens, UniProt P51449); test: Dual Fluorescence Energy Transfer (FRET) Assay; format: biochemical; conditions: mean pIC50 of multiple test results if tested more than once; RORγ-LBD/SRC1(2) peptide interaction
T1 construct: modified polyhistidine tag MKKHHHHHHLVPRGS (N); made in house; host or cells: E. coli BL21(DE3)
T1 sequence (P51449 263-518): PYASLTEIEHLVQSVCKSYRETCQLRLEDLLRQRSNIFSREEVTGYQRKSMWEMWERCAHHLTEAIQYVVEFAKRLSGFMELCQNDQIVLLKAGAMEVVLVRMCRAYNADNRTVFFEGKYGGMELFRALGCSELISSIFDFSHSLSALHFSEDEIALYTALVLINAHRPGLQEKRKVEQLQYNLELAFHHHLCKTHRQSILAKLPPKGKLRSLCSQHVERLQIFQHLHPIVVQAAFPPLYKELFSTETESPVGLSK
Source text: This assay is based on the knowledge that nuclear receptors interact with cofactors (transcription factors) in a ligand dependent manner. RORγ is a typical nuclear receptor in that it has an AF2 domain in the ligand binding domain (LBD) which interacts with co-activators. The sites of interaction have been mapped to the LXXLL motifs in the co-activator SRC1(2) sequences. Short peptide sequences containing the LXXLL motif mimic the behavior of full-length co-activator.
The assay measures ligand-mediated interaction of the co-activator peptide with the purified bacterial-expressed RORγ ligand binding domain (RORγ-LBD) to indirectly assess ligand binding. RORγ has a basal level of interaction with the co-activator SRC1(2) in the absence of ligand, thus it is possible to find ligands that inhibit or enhance the RORγ/SRC1(2) interaction.
Human RORγ Ligand Binding Domain (RORγ-LBD) was expressed in E. coli strain BL21(DE3) as an amino-terminal polyhistidine tagged fusion protein. DNA encoding this recombinant protein was sub-cloned into a modified pET21a expression vector (Novagen). […]
Approximately 50 g E. coli cell pellet was resuspended in 300 mL of lysis buffer (30 mM imidazole pH 7.0 and 150 mM NaCl). […] After washing to baseline absorbance with the equilibration buffer, the column was developed with a gradient from 30 to 500 mM imidazole pH 7.0. […]

[2] = tested on: Mouse CD4+ cells; test: Th17 Cell Differentiation Assay; format: cell-based; conditions: mean pIC50 of multiple test results if tested more than once, IL-17 ELISA
Experimental: Mouse CD4+ cells were purified using the CD4+ T Cell Isolation II Kit according to manufacturer's instructions (Miltenyi Biotec). 96 well plates were pre-coated with anti-mCD3 antibody. Un-coated wells were used as controls. CD4+ Cells were resuspended in RPMI 1640 complete medium and were added to the 96-well plates. Cytokine cocktail and the compound were then added to the wells. Antibodies and cytokines (all from R&D Systems) used in the assay were selected from the following: anti-mCD3; anti-mCD28; anti-mIFNγ; anti-mIL4; mIL-6; mIL-23; mIL-1β; hTGF-β1. The culture was incubated at 37° C. for 3 days and supernatants were collected for ELISA. The IL-17 ELISAs were performed according to manufacturer's instructions (R&D Systems). The results were analyzed using Prism software with non-linear regression to determine pIC50.
The Th17 differentiation culture described above was maintained for 5 days and cells were analyzed by IL-17 and IFN-γ intracellular staining according to manufacturer's instructions (BD Biosciences).

[3] = biological target: T2, RORγ (Homo sapiens, UniProt P51449); test: Jurkat Cell Luciferase Assay; format: cell-based; conditions: mean pIC50 of multiple test results if tested more than once; Jurkat cells, human IL17 promoter luciferase reporter, RORγt overexpression
T2 construct: expressed in transfected cells
T2 sequence (P51449 1-497 isoform P51449-2): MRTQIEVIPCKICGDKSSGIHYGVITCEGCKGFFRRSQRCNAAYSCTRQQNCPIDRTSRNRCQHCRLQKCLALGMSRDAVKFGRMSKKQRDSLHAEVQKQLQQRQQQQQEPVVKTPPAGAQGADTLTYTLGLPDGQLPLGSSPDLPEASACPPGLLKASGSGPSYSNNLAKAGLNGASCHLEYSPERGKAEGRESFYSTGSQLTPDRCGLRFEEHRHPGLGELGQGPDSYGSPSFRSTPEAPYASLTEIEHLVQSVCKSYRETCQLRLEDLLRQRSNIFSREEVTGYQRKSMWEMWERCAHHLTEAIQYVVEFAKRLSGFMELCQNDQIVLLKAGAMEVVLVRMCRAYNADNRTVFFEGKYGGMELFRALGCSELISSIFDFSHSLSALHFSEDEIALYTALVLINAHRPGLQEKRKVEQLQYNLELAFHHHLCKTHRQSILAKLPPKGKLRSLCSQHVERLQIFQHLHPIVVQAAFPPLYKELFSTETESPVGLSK
Source text: RORγ is known to bind to a CNS (conserved non-coding sequences) enhancer element in the IL17 promoter. In this assay, RORγ activity is indirectly assessed using a luciferase reporter construct which contains the human IL17 promoter having the RORγ-specific CNS enhancer element. Inhibition of RORγ activity by a compound will result in a decrease in luciferase activity of Jurkat cells transfected with the reporter construct.
For the luciferase reporter plasmid, the 3 Kb human IL17 promoter containing the RORγ-specific CNS enhancer element was PCR amplified from human genomic DNA and cloned into a pGL4-Luc2/hygro reporter plasmid sequentially as XhoI-HindIII (1.1 Kb) and KpnI-XhoI (1.9 Kb) fragments. For the 1.1 Kb fragment, PCR was used to amplify human IL17 proximal promoter region from genomic DNA of 293T cells using primers as follows: forward primer, 5′-[…]-3′ (XhoI site is underlined) and reverse primer, 5′-[…]-3′ (HindIII site is underlined). The 1.1 kb DNA bands were excised, purified, and inserted into pMD19-T Simple Vector (Takara). […]
Compounds were dissolved in DMSO at three concentrations, 10 mM, 400 uM and 16 uM, and were dispensed into 384-wells assay plate at 40 nl, 12.5 nl, 5 nl respectively. The volume was adjusted with pure DMSO to a give a final uniform volume of 40 nl Jurkat cells described above were counted and centrifuged. […]

[4] = biological target: T3, RORγ-LBD (Homo sapiens, UniProt P51449); test: Fluorescence Energy Transfer (FRET) Assay; format: biochemical; conditions: mean pIC50 of multiple test results if tested more than once; SRC1/RORγ-LBD with 0.2 μM surrogate agonist
T3 construct: adding an appropriate amount of biotinylated RORγ-LBD and APC-labeled streptavidin
T3 sequence (P51449 269-508 limits assumed): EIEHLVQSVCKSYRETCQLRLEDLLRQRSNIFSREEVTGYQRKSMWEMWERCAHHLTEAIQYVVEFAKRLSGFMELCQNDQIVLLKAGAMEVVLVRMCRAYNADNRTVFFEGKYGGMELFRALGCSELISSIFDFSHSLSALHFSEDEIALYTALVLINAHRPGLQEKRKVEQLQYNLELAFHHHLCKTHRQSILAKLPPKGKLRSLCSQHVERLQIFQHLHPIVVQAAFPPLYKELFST
Experimental: The assays were performed in an assay buffer consisting of 50 mM NaF, 50 mM 3-(N-morpholino)propanesulfonic acid, pH 7.5, 50 μM 3-[(3-cholamidopropyl)dimethylammonio]-propanesulfonate, 0.1 mg/mL bovine serum albumin, and 10 mM dithiothreitol in 384-well plates (Greiner 784076, Longwood, Fla.). The total volume was 10 μL/well. The europium-labeled SRC1 solution was prepared by adding an appropriate amount of biotinylated SRC and europium labeled streptavidin (PerkinElmer Life and Analytical Sciences, Waltham, Mass.) into assay buffer, with final concentrations of 27 and 3.3 nM, respectively. The allophycocyanin (APC)-labeled-LBD solution was prepared by adding an appropriate amount of biotinylated RORγ-LBD and APC-labeled streptavidin (CR130-100; PerkinElmer Life and Analytical Sciences) at a final concentration of 33 nM each. After 15 min of incubation at room temperature, a 20-fold excess of biotin was added to block the remaining free streptavidin. […] The plates were incubated for 1 h at room temperature and then read on ViewLux (PerkinElmer Life and Analytical Sciences) in LANCE mode configured for europeum-APC labels. Data were collected and analyzed by Activitybase.

SMILES	IC50 [1]	IC50 [2]	IC50 [3]	IC50 [4]
Cc1ncc(C(=O)Nc2cc(Cl)cc(CN3CCN(C(=O)[C@@H]4CCOC4)[C@@H](C)C3)c2C)cc1C#N (single isomer, unassigned) [Example 91]	~794 nM	~17.4 nM	~12.6 nM	~251 nM
Cc1ncc(C(=O)Nc2cc(Cl)cc(CN3CCN(C(=O)[C@H]4CCOC4)[C@@H](C)C3)c2C)cc1F [Example 57, N-(5-chloro-2-methyl-3-(((S)-3-methyl-4-((S)-tetrahydrofuran-3-carbonyl)piperazin-1-yl)methyl)phenyl)-5-fluoro-6-methylnicotinamide]	~200 nM	~81.3 nM	~25.1 nM	~126 nM
